In brackets after ≈: the same amount, converted by molar mass. Where two headings read alike, the source gives them in different places.
How the values were obtained:
HIV-1 (HTLV-IIIB) = assay: microbe, parasite or virus in culture; type: cell-based; details: for EC50: Human immunodeficiency virus 1, MT4, 120 h, read-out: ED₅₀; for SI: Selectivity Index, ratio of CD₅₀ to ED₅₀, HIV-1, 7200 min
Protocol: (§1) The compounds of the invention were tested in a screen by the MTT method (J. Virol. Methods 120: 309-321 [1988]). MT-4 cells (2.5 x 10⁴ /well) were infected with HIV-1 (HTLV-IIIB) or HIV-2 (LAV-2 ROD) at a concentration of 100 CCID₅₀ and incubated in the presence of various concentrations of the test compounds, which were added immediately after infection with the virus. After 5 days culture at 37°C in a CO₂ incubator, the number of viable cells was assessed by the MTT (tetrazolium) method. […] The potential therapeutic usefulness was assessed by calculating a Selectivity Index (SI) corresponding to the ratio of CD₅₀ to ED₅₀. A control test was performed using the known anti-HIV treatment AZT.

[1] = Cytotoxicity by MTT method in MT-4 cells; type: cell-based, human; details: human, mt-4 cells, read-out: CD₅₀
Protocol: as §1

HIV-2 (LAV-2 ROD) = assay: MTT method anti-HIV screen in MT-4 cells infected with HIV-2; type: cell-based; details: for EC50: Human immunodeficiency virus 2, MT4, 120 h, read-out: ED₅₀; for EC50 / ED₅₀: antiviral activity, MT-4 cells infected with HIV-2 (LAV-2 ROD) at 100 CCID₅₀, 5 days; for SI: Selectivity Index, ratio of CD₅₀ to ED₅₀, HIV-2, 7200 min
Protocol: as §1

MT-4 cells = assay: Cytotoxicity by MTT method in MT-4 cells; type: cell-based, human
Protocol: as §1

[2] = antiviral activity, MT-4 cells infected with HIV-1 (HTLV-IIIB) at 100 CCID₅₀, 5 days

| Compound | EC50 (HIV-1 (HTLV-IIIB)) | SI (HIV-1 (HTLV-IIIB)) | CC50 at 120 h ([1]; HIV-1, 5 days culture at 37°C) | EC50 (HIV-1 (HTLV-IIIB); [2]) | EC50 (HIV-2 (LAV-2 ROD)) | SI (HIV-2 (LAV-2 ROD)) | CC50 at 120 h ([1]; HIV-2, 5 days culture at 37°C) | ED₅₀ (HIV-1 (HTLV-IIIB); [2]) | ED₅₀ (HIV-2 (LAV-2 ROD)) | CD₅₀ (MT-4 cells; HIV-1, 5 days culture at 37°C) | CD₅₀ (MT-4 cells; HIV-2, 5 days culture at 37°C) |
| --- | --- | --- | --- | --- | --- | --- | --- | --- | --- | --- | --- |
| Cc1cn([C@H]2C[C@H](N=[N+]=[N-])[C@@H](CO)O2)c(=O)[nH]c1=O [AZT, reference compound] | < 0.008 µg/mL | >125 | > 1 µg/mL |  |  |  |  |  |  |  |  |
| C1CNCCCNCCNCCCNC1 [B, 1,4,8,12-tetrazacyclopentadecane] |  | 15 | 460 µg/mL (≈ 2140 µM) | 30.3 µg/mL (≈ 141 µM) | 40.4 µg/mL (≈ 188 µM) | 12 | 487 µg/mL (≈ 2270 µM) |  |  |  |  |
| C1CCNCCCNCCNCCCNC1 [C, 1,4,8,13-tetrazacyclohexadecane. 4HCl] |  | 18 | 334 µg/mL | 18.8 µg/mL | > 500 µg/mL | <1 | 341 µg/mL |  |  |  |  |
| C1CNCCCNCCCNCCCNC1 [D, 1,5,9,13-tetrazacyclohexadecane] |  | 37 | 11.2 µg/mL (≈ 49 µM) | 0.3 µg/mL (≈ 1.31 µM) | > 40 µg/mL | <1 | 20.5 µg/mL (≈ 89.8 µM) |  |  |  |  |
| C1CCNCCCNCCCNCCCNC1 [E, 1,5,9,14-tetrazacycloheptadecane] |  | 3 | 3.35 µg/mL (≈ 13.8 µM) | 1.3 µg/mL (≈ 5.36 µM) | > 8 µg/mL | <1 | 5.06 µg/mL (≈ 20.9 µM) |  |  |  |  |
| C1CNCCNCCNCCNCCN1 [F, 1,4,7,10,13-pentazacyclopentadecane] |  | <1 | 3.36 µg/mL (≈ 15.6 µM) | > 8 µg/mL | > 8 µg/mL | <1 | 6.03 µg/mL (≈ 28 µM) |  |  |  |  |
| CC1CC(C)(C)NCCNC(C)CC(C)(C)NCCN1 (stereo not shown) [I, 5,5,7,12,12,14-hexamethyl-cyclam] |  | 2 | 432 µg/mL (≈ 1520 µM) | 197 µg/mL (≈ 692 µM) | > 1000 µg/mL | <1 | 419 µg/mL (≈ 1470 µM) |  |  |  |  |
| Zn complex of 1,4,8,12-tetrazacyclopentadecane (Cl⁻) [G] |  |  |  |  |  |  |  | 6.96 µg/mL | >1000.0 µg/mL | 194.2 µg/mL | 218.3 µg/mL |
| Zn complex of 1,5,9,13-tetrazacyclohexaadecane (Cl⁻) [Compound H] |  |  |  |  |  |  |  | 10.6 µg/mL | >100.0 µg/mL | 46.9 µg/mL | 46.9 µg/mL |
| [Cu cyclam]Cl₂ [X, reference compound] |  |  |  |  |  |  |  | >250 µg/mL |  |  |  |
| c-[Rh cyclam (NO₂)₂]Cl [reference compound] |  |  |  |  |  |  |  | >250 µg/mL |  |  |  |
